Measured values from patent publication US12491253B2, “Bicyclic peptide ligands specific for MT1-MMP” (BicycleRD Limited, priority 2018, dated 2025).

Molecular target: MT1-MMP hemopexin domain (Homo sapiens, UniProt P50281)
Details: Human MT1-MMP FP direct binding; fluoresceinated bicyclic peptide titrated with hemopexin domain; molecular scaffold TBMB
Method: Direct Binding Fluorescence Polarisation or Anisotropy Assays are performed by titrating a constant concentration of fluorescent tracer (here, the fluoresceinated bicyclic peptide to be studied) with its binding partner (here, the MT1-MMP hemopexin domain). As the concentration of binding partner increases during the titration, the polarisation signal changes in proportion to the fraction of bound and unbound material. This allows determination of […] (Kd) quantitatively. Assay data can be fit using standard ligand binding equations.
The titrant (binding partner) concentration is varied from 0.1 nM up to typically 5 μM. The range is chosen such that the maximum change in fluorescent polarisation can be observed. Buffers employed are phosphate buffered saline in the presence of 0.01% Tween. Experiments were run in black 384 well low-bind/low volume plates (Corning 3820), and the fluorescent polarisation signal was measured using a BMG Pherastar FS plate reader. […] Fluoresceination may be performed on the N-terminal amino group of the peptide, which is separated from the bicycle core sequence by a sarcosine spacer (usually Sar5). This can be done during Fmoc solid phase synthesis or post-synthetically (after cyclisation with TBMB and purification) if the N-terminal amino group is unique to the peptide. Fluoresceination can also be performed on the C-terminus, usually on a Lysine introduced as the first C-terminal residue, which is then separated from the bicycle core sequence by a sarcosine spacer (usually Sar6). Thus, N-terminal tracers can have a molecular format described as Fluo-Gly-Sar6-A (BicycleCoreSequence), and (BicycleCoreSequence)-A-Sar6-K(Fluo) for a C-terminally fluoresceinated construct.
Fluorescent tracers used in the Examples include BCY1323-Sar6-K(FI), BCY1326-Sar6-K(FI), BCY3418-Sar6-K(FI), BCY3422-K(FI), and BCY1329-Sar6-K(FI).

Substance	Kd
fluoresceinated bicyclic peptide tracer on TBMB, used as BCY1323-Sar6-K(FI); sequence not given	35.9 ± 6.65 nM
fluoresceinated bicyclic peptide tracer on TBMB, used as BCY1326-Sar6-K(FI); sequence not given	218 nM
fluoresceinated bicyclic peptide tracer on TBMB, used as BCY1329-Sar6-K(FI); sequence not given	22.1 ± 11 nM
